Test results taken from patent US20240124409A1, “GUAIANOLIDE SESQUITERPENE LACTONE DERIVATIVES AND PHARMACEUTICAL USE THEREOF” (NANJING UNIVERSITY OF CHINESE MEDICINE, priority 2021, published 2024).
Values after ≈ are worked out from the molar mass of the structure shown.

Experiments:
Solubility test in water = format: physicochemical; conditions: thermodynamic from solid; deionized water, 37° C.
Procedure: Saturated solutions were formulated, filtered and analyzed by HPLC with a sample volume of 1 μL, 3 μL, 5 μL, 10 μL, 15 µL and 20 μL sequentially, and the standard curves of the corresponding compounds were drawn.
[…] of the above compounds were formulated, dissolved by ultrasound for 4 h, and placed on a water bath at 37° C. to stand for 1 h. The resulting unsaturated solutions were centrifuged. 30 μL of supernatants were removed, diluted by adding 200 μL of deionized water, and then filtered.

[1] = Safety investigation of Compound 23, 30 days in mice; format: in vivo, C57BL/6 mice; conditions: for body weight: in % (unit assumed)
[2] = Conversion of Compound 23 to Compound 1 in HEPES7.4 solution; format: physicochemical; conditions: HEPES buffer solution, 37° C.
Procedure: Formulation of HEPES 7.4 solution: 1.6 g of NaCl, 0.074 g of KCl, 0.027 g of Na2HPO4, 0.2 g of glucose and 1 g of a 4-hydroxyethyl piperazine ethanesulfonic acid (HEPES) solution were placed in 90 mL of distilled water, the pH of which was adjusted to 7.4 with 0.5 M NaOH, and then the volume was adjusted to 100 mL with distilled water.
250 μL of the mouse serum or the HEPES7.4 solution was added into the sample, incubated at 37° C., and sampled at different time points, respectively. 20 μL of samples were taken into EP tubes, into which was added 60 μL of methanol, vortexed to mix well, and centrifuged at 12000 rpm at 4° C. for 10 min. The supernatants were taken at 1 h, 2 h, 4 h, 8 h and 12 h, respectively. The samples were analyzed by HPLC with an injection volume of 10 μL, and the corresponding peak areas were recorded. The chromatographic conditions were as follows: the chromatographic column was Hanbang C18 (4.6×250 mm, 5 um); the mobile phase was acetonitrile: […] of ammonium formate solution =60: 40; the flow rate was 1.0 mL/min; the detection wavelength was 210 nm; and the column temperature was 30° C.

NLRP3 inflammasome = conditions: read-out: inhibitory activity against the NLRP3 inflammasome activation, EC50; cited from earlier work

SMILES: C=C1C(=O)O[C@@H]2[C@@H]3[C@]4(CC[C@@]3(C)O)C[C@]4(C)CC[C@@H]12 [Compound 1]
- solubility (Solubility test in water): 1140 µg/mL (≈ 4.35 mM)

SMILES: CN(C)C[C@@H]1C(=O)O[C@H]2[C@H]1CC[C@@]1(C)C[C@]13CC[C@@](C)(O)[C@H]23 [Compound 23]
- activities of the mice after each administration ([1]; 500 and 1000 mg/kg): relatively reduced
- time to return to normal after administration ([1]; 500 and 1000 mg/kg): 1 to 2 h
- mortality ([1]; 500 and 1000 mg/kg, 30 days): none of the mice die
- effect on body weights ([1]; 500 and 1000 mg/kg, female and male mice): no obvious effect on the body weights
- body weight ([1]; female, 500 mg/kg i.g. daily, Day 1): 100.00 ± 0.00
- body weight ([1]; female, 500 mg/kg i.g. daily, Day 5): 100.41 ± 0.43
- body weight ([1]; female, 500 mg/kg i.g. daily, Day 10): 99.01 ± 1.34
- body weight ([1]; female, 500 mg/kg i.g. daily, Day 15): 100.03 ± 0.95
- body weight ([1]; female, 500 mg/kg i.g. daily, Day 20): 100.52 ± 0.74
- body weight ([1]; female, 500 mg/kg i.g. daily, Day 25): 99.81 ± 1.72
- body weight ([1]; female, 500 mg/kg i.g. daily, Day 30): 99.79 ± 2.55
- body weight ([1]; female, 1000 mg/kg i.g. daily, Day 1): 100.00 ± 0.00
- body weight ([1]; female, 1000 mg/kg i.g. daily, Day 5): 101.96 ± 0.55
- body weight ([1]; female, 1000 mg/kg i.g. daily, Day 10): 101.80 ± 2.02
- body weight ([1]; female, 1000 mg/kg i.g. daily, Day 15): 99.77 ± 2.60
- body weight ([1]; female, 1000 mg/kg i.g. daily, Day 20): 101.04 ± 2.13
- body weight ([1]; female, 1000 mg/kg i.g. daily, Day 25): 99.06 ± 3.56
- body weight ([1]; female, 1000 mg/kg i.g. daily, Day 30): 100.67 ± 0.91
- body weight ([1]; male, 500 mg/kg i.g. daily, Day 1): 100.00 ± 0.00
- body weight ([1]; male, 500 mg/kg i.g. daily, Day 5): 100.31 ± 0.89
- body weight ([1]; male, 500 mg/kg i.g. daily, Day 10): 101.51 ± 4.00
- body weight ([1]; male, 500 mg/kg i.g. daily, Day 15): 99.27 ± 2.11
- body weight ([1]; male, 500 mg/kg i.g. daily, Day 20): 101.29 ± 0.40
- body weight ([1]; male, 500 mg/kg i.g. daily, Day 25): 98.93 ± 0.60
- body weight ([1]; male, 500 mg/kg i.g. daily, Day 30): 100.10 ± 1.08
- body weight ([1]; male, 1000 mg/kg i.g. daily, Day 1): 100.00 ± 0.00
- body weight ([1]; male, 1000 mg/kg i.g. daily, Day 5): 101.48 ± 1.30
- body weight ([1]; male, 1000 mg/kg i.g. daily, Day 10): 101.22 ± 0.84
- body weight ([1]; male, 1000 mg/kg i.g. daily, Day 15): 100.47 ± 1.28
- body weight ([1]; male, 1000 mg/kg i.g. daily, Day 20): 100.15 ± 2.76
- body weight ([1]; male, 1000 mg/kg i.g. daily, Day 25): 98.35 ± 1.14
- body weight ([1]; male, 1000 mg/kg i.g. daily, Day 30): 100.71 ± 0.53
- content of Compound 1 (converted from Compound 23) ([2]; 1 h): 5.36%
- content of Compound 1 (converted from Compound 23) ([2]; 2 h): 11.05%
- content of Compound 1 (converted from Compound 23) ([2]; 4 h): 19.64%
- content of Compound 1 (converted from Compound 23) ([2]; 8 h): 39.29%
- content of Compound 1 (converted from Compound 23) ([2]; 12 h): 55.36%

SMILES: C=C1C(=O)O[C@@H]2[C@H]3C(C)=CC[C@@]34O[C@@]4(C)CC[C@@H]12 [arglabin, reference compound]
- EC50 (NLRP3 inflammasome): 10 nM
